{
  "source": "patent US7928119B2",
  "about": "“Use of EP4 receptor ligands in the treatment of IL-6 involved diseases” (Pfizer Inc., priority 2002, dated 2011)",
  "data": [
    {"system": "not given", "test": "not given", "conditions": "not given", "units": {"melting point": "°C"}, "values": [
      {"compound": "CCc1nc2c(C)cc(C)nc2n1-c1ccc(CC(C)NC(=O)NS(=O)(=O)c2ccc(C)cc2)cc1", "note": "(stereo not shown)", "melting point": 128},
      {"compound": "CCc1nc2c(C)c(C#N)c(C)cc2n1-c1ccc(CCNC(=O)NS(=O)(=O)c2ccc(C)cc2)cc1", "melting point": "140 to 145"},
      {"compound": "CCc1nc2cc(S(N)(=O)=O)c(Cl)cc2n1-c1ccc(CCNC(=O)NS(=O)(=O)c2ccc(C)cc2)cc1", "melting point": "163 to 170"},
      {"compound": "CC(=O)c1nc2cc(C(F)(F)F)c(Cl)cc2n1-c1ccc(CCNC(=O)NS(=O)(=O)c2ccc(C)cc2)cc1", "note": "[Example 368, N-{[(2-{4-[2-ACETYL-6-CHLORO-5-(TRIFLUOROMETHYL)-1H-BENZIMIDAZOL-1-YL]PHENYL}ETHYL)AMINO]CARBONYL}-4-METHYLBENZENESULFONAMIDE]", "melting point": 225},
      {"compound": "CCc1nc2cc(C(C)O)ccc2n1-c1ccc(CCNC(=O)NS(=O)(=O)c2ccc(C)cc2)cc1", "note": "(stereo not shown) [Example 345, N-{[(2-{4-[2-ETHYL-5-(1-HYDROXYETHYL)-1H -BENZIMIDAZOL-1-YL]PHENYL}ETHYL)AMINO]CARBONYL}-4-METHYLBENZENESULFONAMIDE]", "melting point": 190},
      {"compound": "Cc1ccc(S(=O)(=O)NC(=O)NCCc2ccc(-n3c(C(C)O)nc4cc(C(F)(F)F)c(Cl)cc43)cc2)cc1", "note": "(stereo not shown) [Example 367, N-{[(2-{4-[6-CHLORO-2-(1-HYDROXYETHYL)-5-(TRIFLUOROMETHYL)-1H-BENZIMIDAZOL-1-YL]PHENYL}ETHYL)AMINO]CARBONYL}-4-METHYLBENZENESULFONAMIDE]", "melting point": 220},
      {"compound": "CCc1nc2c(C(N)=O)cccc2n1-c1ccc(CCNC(=O)NS(=O)(=O)c2ccc(C)cc2)cc1", "melting point": "208 to 214"},
      {"compound": "CCc1nc2cc(C(N)=O)c(Cl)cc2n1-c1ccc(CCNC(=O)NS(=O)(=O)c2ccc(C)cc2)cc1", "melting point": "152 to 163"},
      {"compound": "CCc1nc2c(C)cc(C)nc2n1-c1ccc(CCNC(=O)NS(=O)(=O)c2ccncc2)cc1", "note": "[Example 274, 2-ETHYL-3-(4-{2-[({[4-PYRIDINYLSULFONYL]AMINO}CARBONYL)AMINO]ETHYL}PHENYL)-5,7-DIMETHYL-3H-IMIDAZO[4,5-b]PYRIDINE]", "melting point": "227.9 to 228.7"},
      {"compound": "CCc1nc2cc(C(=O)NC)c(Cl)cc2n1-c1ccc(CCNC(=O)NS(=O)(=O)c2ccc(C)cc2)cc1", "note": "[Example 333, 6-CHLORO-2-ETHYL-N-METHYL-1-(4-{2-[({[(4-METHYLPHENYL)SULFONYL]AMINO}CARBONYL)AMINO]ETHYL}PHENYL)-1H-BENZIMIDAZOLE-5-CARBOXAMIDE]", "melting point": "122 to 135"},
      {"compound": "CCc1nc2c(C)c(NS(C)(=O)=O)cnc2n1-c1ccc(CCNC(=O)NS(=O)(=O)c2ccc(C)cc2)cc1", "melting point": 166},
      {"compound": "CCc1nc2c(C)cc(C)nc2n1-c1ccc(CCNC(=O)NS(=O)(=O)c2cc3ccccc3s2)cc1", "melting point": "128 to 130"},
      {"compound": "CCc1nc2cc(C(F)(F)F)c(Cl)cc2n1-c1ccc(CCN(C(=O)O)S(=O)(=O)c2ccc(C)cn2)cc1.Cl.Cl", "melting point": 200.2},
      {"compound": "CCc1nc2c(C#N)cccc2n1-c1ccc(CCNC(=O)NS(=O)(=O)c2ccc(C)cc2)cc1", "note": "[Example 321, 4-CYANO-2-ETHYL-1-(4-{2-[({[(4-METHYLPHENYL)SULFONYL]AMINO}CARBONYL)AMINO]ETHYL}PHENYL)-1H-BENZIMIDAZOLE]", "melting point": "95 to 103"},
      {"compound": "CCc1nc2cc(C(F)(F)F)c(Cl)cc2n1-c1ccc(C[C@@H](C)NC(=O)NS(=O)(=O)c2ccc(C)cc2)cc1", "note": "[Example 255, N-{[((1R)-2-{4-[6-CHLORO-2-ETHYL-5-(TRIFLUOROMETHYL)-1H-BENZIMIDAZOL-1-YL]PHENYL}-1-METHYLETHYL)AMINO]CARBONYL}-4-METHYLBENZENESULFONAMIDE]", "melting point": "138 to 141"},
      {"compound": "CCc1nc2c(C)c(C#N)c(C)nc2n1-c1ccc(CCNC(=O)NS(=O)(=O)c2ccc(C)cc2)cc1", "note": "[Example 41, 6-CYANO-2-ETHYL-5,7-DIMETHYL-3-(4-{2-[({[(4-METHYLPHENYL)SULFONYL]AMINO}CARBONYL)AMINO]ETHYL}PHENYL)-3H-IMIDAZO[4,5-b]PYRIDINE]", "melting point": 133},
      {"compound": "CCc1nc2cc(C(F)(F)F)c(Cl)cc2n1-c1ccc(C[C@H](C)NC(=O)NS(=O)(=O)c2ccc(C)cc2)cc1", "note": "[Example 254, N-{[((1S)-2-{4-[6-CHLORO-2-ETHYL-5-(TRIFLUOROMETHYL)-1H-BENZIMIDAZOL-1-YL]PHENYL}-1-METHYLETHYL)AMINO]CARBONYL}-4-METHYLBENZENESULFONAMIDE]", "melting point": "141 to 143"},
      {"compound": "CCc1nc2cc(C(F)(F)F)c(Cl)cc2n1-c1ccc(CCOC(=O)NS(=O)(=O)c2cn(C)cn2)cc1", "note": "[Example 292, 2-{4-[6-CHLORO-2-ETHYL-5-(TRIFLUOROMETHYL)-1H-BENZIMIDAZOL-1-YL]PHENYL}ETHYL-(1-METHYL-1H-IMIDAZOL-4-YL)SULFONYLCARBAMATE]", "melting point": 204.3},
      {"compound": "CCc1nc2c(Cl)nc(C)cc2n1-c1ccc(CCNC(=O)NS(=O)(=O)c2ccc(C)cc2)cc1", "melting point": 163},
      {"compound": "CCc1nc2cc(C(F)(F)F)c(Cl)cc2n1-c1ccc(CCOC(=O)NS(=O)(=O)c2ccccn2)cc1", "melting point": "127 to 130"},
      {"compound": "CCc1nc2cc(COC)c(Cl)cc2n1-c1ccc(CCNC(=O)NS(=O)(=O)c2ccc(C)cc2)cc1", "note": "[Example 338, N-({[2-(4-{6-CHLORO-2-ETHYL-5-[(METHYLOXY)METHYL]-1H-BENZIMIDAZOL-1-YL}PHENYL)ETHYL]AMINO}CARBONYL)-4-METHYLBENZENSULFONAMIDE]", "melting point": 134.6},
      {"compound": "CCc1nc2cc(N(C)C)c(Cl)cc2n1-c1ccc(CCNC(=O)NS(=O)(=O)c2ccc(C)cc2)cc1", "melting point": "108 to 114"},
      {"compound": "CCc1nc2cc(C(=O)O)c(Cl)cc2n1-c1ccc(CCNC(=O)NS(=O)(=O)c2ccc(C)cc2)cc1", "note": "[Example 112, 6-CHLORO-2-ETHYL-1-(4-{2-[({[(4-METHYLPHENYL)SULFONYL]AMINO}CARBONYL)AMINO]ETHYL}PHENYL)-1H-BENZIMIDAZOLE-5-CARBOXYLIC ACID]", "melting point": "145 to 150"},
      {"compound": "CCc1nc2cc(Cl)c(Cl)nc2n1-c1ccc(CCNC(=O)NS(=O)(=O)c2ccc(C)cc2)cc1", "melting point": "188 to 189"},
      {"compound": "CCc1nc2cc(NS(C)(=O)=O)c(Cl)cc2n1-c1ccc(CCNC(=O)NS(=O)(=O)c2ccc(C)cc2)cc1", "melting point": "101 to 123"},
      {"compound": "CCc1nc2cc(C(F)(F)F)c(Cl)cc2n1-c1ccc(CCOC(=O)NS(=O)(=O)c2cccc3c(N(C)C)cccc23)cc1", "melting point": 203.4},
      {"compound": "CCc1nc2cc(C)c(Cl)nc2n1-c1ccc(CCNC(=O)NS(=O)(=O)c2ccc(C)cc2)cc1", "note": "[Example 38, 5-CHLORO-2-ETHYL-6-METHYL-3-(4-{2-[({[(4-METHYLPHENYL)SULFONYL]AMINO}CARBONYL)AMINO]ETHYL}PHENYL)-3H-IMIDAZO[4,5-b]PYRIDINE]", "melting point": "205 to 206"},
      {"compound": "CCc1nc2cc(S(C)(=O)=O)c(Cl)cc2n1-c1ccc(CCNC(=O)NS(=O)(=O)c2ccc(C)cc2)cc1", "melting point": "105 to 118"},
      {"compound": "CCc1nc2cc(NC)c(Cl)cc2n1-c1ccc(CCNC(=O)NS(=O)(=O)c2ccc(C)cc2)cc1", "melting point": "95 to 100"},
      {"compound": "CCc1nc2cc(NC(C)=O)c(Cl)cc2n1-c1ccc(CCNC(=O)NS(=O)(=O)c2ccc(C)cc2)cc1", "melting point": "125 to 133"},
      {"compound": "CCc1nc2cc(C(F)(F)F)c(Cl)cc2n1-c1ccc(CCOC(=O)NS(=O)(=O)c2cn(C)c(C)n2)cc1", "note": "[Example 294, 2-{4-[6-CHLORO-2-ETHYL-5-(TRIFLUOROMETHYL)-1H-BENZIMIDAZOL-1-YL]PHENYL}ETHYL-(1,2-DIMETHYL-1H-IMIDAZOL-4-YL)SULFONYLCARBAMATE]", "melting point": 221.2}
    ]},
    {"system": "human PBMC", "test": "PGE2 stimulation of IL-6 secretion in ConA-treated human PBMC and its inhibition by EP4 antagonists (ELISA)", "type": "cell-based", "conditions": "ConA-treated PBMC, 50 μM compound, PGE2 10-1000 nM, 24 hr", "method": "(§1) PBMC were stimulated with 5 μg/ml of Con A alone or with 10 nM to 1000 nM PGE2 at 37° C. for 24 hr. The secreted IL-6 in culture medium was measured by ELISA. Data are expressed as mean±s.d. (FIG. 1)\n(§2) The PGE2 concentration-dependence of stimulation of IL-6 secretion by human PBMC without and with ConA-stimulation, and the inhibitory effect of Compound A. PBMC were stimulated with 5 μg/ml of Concanavalin A alone or with 10 nM to 1000 nM PGE2 at 37° C. in 5% CO2 for 24 hr. To see the effect of Compound A, 50 μM of Compound A was added simultaneously with ConA and PGE2, and incubated for 24 hr. Data in parenthesis are expressed % control of mitocondorial dehydrogenase activity. (FIG. 2)\n(§3) Compound A and Compound B inhibited the IL-6 secretion in ConA-treated PBMC. (FIG. 3.) PBMC were incubated with 5 μg/ml of Con A, 100 nM PGE2 and various doses of EP4 antagonists at 37° C. for 24 hr. The secreted IL-6 in culture medium was measured by ELISA. Data are expressed as mean±s.d.", "values": [
      {"compound": "CCc1nc2c(C)cc(C)nc2n1-c1ccc(CCNC(=O)NS(=O)(=O)c2ccc(C)cc2)cc1", "note": "[Compound A, N-[({2-[4-(2-ethyl-5,7-dimethyl-3H-imidazo[4,5-b]pyridin-3-yl)phenyl]ethyl}amino)carbonyl]-4-methylbenzenesulfonamide]", "IL-6 production enhanced by PGE2": "significantly inhibited"}
    ]},
    {"system": "human PBMC", "test": "PGE2 stimulation of IL-6 secretion in ConA-treated human PBMC and its inhibition by EP4 antagonists (ELISA)", "type": "cell-based", "conditions": "Homo sapiens; PBMC stimulated with 5 μg/ml ConA and 100 nM PGE2 for 24 hr; read-out: IC50 of inhibition of IL-6 production", "method": "as §1, §2, §3", "units": {"IC50": "nM"}, "values": [
      {"compound": "CCc1nc2c(C)cc(C)nc2n1-c1ccc(CCNC(=O)NS(=O)(=O)c2ccc(C)cc2)cc1", "note": "[Compound A, N-[({2-[4-(2-ethyl-5,7-dimethyl-3H-imidazo[4,5-b]pyridin-3-yl)phenyl]ethyl}amino)carbonyl]-4-methylbenzenesulfonamide]", "IC50": 13}
    ]},
    {"system": "human PBMC", "test": "PGE2 stimulation of IL-6 secretion in ConA-treated human PBMC and its inhibition by EP4 antagonists (ELISA)", "type": "cell-based", "conditions": "PBMC, 5 μg/ml ConA, 24 hr, without PGE2", "method": "as §1, §2, §3", "values": [
      {"compound": "Concanavalin A [ConA]", "secretion of IL-6": "enhanced"}
    ]}
  ]
}
